pIC50: −log10 of the molar value. ≈ marks a conversion by molar mass, not a printed value.
What was measured:
Trypanosoma cruzi = assay: Inhibition of Trypanosoma cruzi; type: functional, organism-based
[1] = Cytotoxicity against KB cells; type: cell-based; settings: human, read-out: ED50 (the source's name)
Leishmania donovani = assay: Inhibition of Leishmania donovani; type: functional, organism-based
[2] = Therapeutic index, ratio of IC50 for Leishmania donovani to ED50 for KB cells; type: cell-based; settings: human, read-out: TI
[3] = Therapeutic index, ratio of IC50 for Trypanosoma cruzi to ED50 for KB cells; type: cell-based; settings: human, read-out: TI

## COC(=O)N1[C@@H]2C=C[C@@](OC)(C(=O)c3c2cc(OC)c(OC)c3OC)N1C(=O)OC
Trypanosoma cruzi
  pIC50: < 4.15
[1]
  CC50: > 300 µg/mL
Leishmania donovani
  pIC50: < 4.15

## CCOc1c(OC)c(OC)cc2c1C(=O)[C@]1(OC)C=C[C@H]2N(C(=O)OC)N1C(=O)OC
Trypanosoma cruzi
  pIC50: < 4.16
[1]
  CC50: > 300 µg/mL
Leishmania donovani
  pIC50: < 4.16

## COc1cc2c(c(OCc3ccc(F)cc3)c1OC)C(=O)[C@]1(OC)C=C[C@H]2N(C(=O)OC(C)C)N1C(=O)OC(C)C
Trypanosoma cruzi
  pIC50: 4.74
[1]
  CC50: > 300 µg/mL
Leishmania donovani
  pIC50: < 4.28

## COC(=O)N1[C@@H]2C=C[C@@](OC)(C(=O)c3c2cc(OC)c(OC)c3OCc2ccccc2)N1C(=O)OC
Trypanosoma cruzi
  pIC50: < 4.22
[1]
  CC50: > 300 µg/mL
Leishmania donovani
  pIC50: < 4.22

## CCOC(=O)N1[C@@H]2C=C[C@@](OC)(C(=O)c3c2cc(OC)c(OC)c3OCC)N1C(=O)OCC
Trypanosoma cruzi
  pIC50: < 4.19
[1]
  CC50: > 300 µg/mL
Leishmania donovani
  pIC50: < 4.19

## COC(=O)N1[C@@H]2C=C[C@@](OC)(C(=O)c3c2cc(OC)c(OC)c3OCc2ccc(F)cc2)N1C(=O)OC
Trypanosoma cruzi
  pIC50: < 4.24
[1]
  CC50: 56.6 µg/mL (≈ 110 µM)
Leishmania donovani
  pIC50: < 4.24

## COC(=O)N1[C@@H]2C=C[C@@](OC)(C(=O)c3c2cc(OC)c(OC)c3OCc2ccccc2F)N1C(=O)OC
Trypanosoma cruzi
  pIC50: < 4.24
[1]
  CC50: 137 µg/mL (≈ 266 µM)
Leishmania donovani
  pIC50: < 4.24

## CCCOc1c(OC)c(OC)cc2c1C(=O)[C@]1(OC)C=C[C@H]2N(C(=O)OCC)N1C(=O)OCC
Trypanosoma cruzi
  pIC50: < 4.20
[1]
  CC50: > 300 µg/mL
Leishmania donovani
  pIC50: < 4.20

## CCOC(=O)N1[C@@H]2C=C[C@@](OC)(C(=O)c3c2cc(OC)c(OC)c3OCc2ccccc2)N1C(=O)OCC
Trypanosoma cruzi
  pIC50: 4.27
[1]
  CC50: 215 µg/mL (≈ 409 µM)
Leishmania donovani
  pIC50: < 4.24

## CCOC(=O)N1[C@@H]2C=C[C@@](OC)(C(=O)c3c2cc(OC)c(OC)c3OCc2ccc(F)cc2)N1C(=O)OCC
Trypanosoma cruzi
  pIC50: 4.29
[1]
  CC50: 51.8 µg/mL (≈ 95.1 µM)
Leishmania donovani
  pIC50: < 4.26

## CCOC(=O)N1[C@@H]2C=C[C@@](OC)(C(=O)c3c2cc(OC)c(OC)c3OCc2ccc(Cl)cc2)N1C(=O)OCC
Trypanosoma cruzi
  pIC50: 4.08
[1]
  CC50: 99.9 µg/mL (≈ 178 µM)
Leishmania donovani
  pIC50: < 4.27

## CCOC(=O)N1[C@@H]2C=C[C@@](OC)(C(=O)c3c2cc(OC)c(OC)c3OCc2ccc(OC)cc2)N1C(=O)OCC
Trypanosoma cruzi
  pIC50: < 4.27
[1]
  CC50: 63.1 µg/mL (≈ 113 µM)
Leishmania donovani
  pIC50: 5.00

## COc1cc2c(c(OC)c1OC)C(=O)[C@]1(OC)C=C[C@H]2N(C(=O)OC(C)C)N1C(=O)OC(C)C
Trypanosoma cruzi
  pIC50: < 4.20
[1]
  CC50: > 300 µg/mL
Leishmania donovani
  pIC50: < 4.20

## CCOc1c(OC)c(OC)cc2c1C(=O)[C@]1(OC)C=C[C@H]2N(C(=O)OC(C)C)N1C(=O)OC(C)C
Trypanosoma cruzi
  pIC50: < 4.22
[1]
  CC50: > 300 µg/mL
Leishmania donovani
  pIC50: < 4.22

## COc1cc2c(c(OCc3ccccc3)c1OC)C(=O)[C@]1(OC)C=C[C@H]2N(C(=O)OC(C)C)N1C(=O)OC(C)C
Trypanosoma cruzi
  pIC50: 4.92
[1]
  CC50: 94 µg/mL (≈ 169 µM)
Leishmania donovani
  pIC50: < 4.27

## CCOC(=O)N1[C@@H]2C=C[C@@](OC)(C(=O)c3c2cc(OC)c(OC)c3OCc2ccccc2F)N1C(=O)OCC
Trypanosoma cruzi
  pIC50: 4.27
[2]
  selectivity ratio: 21.3
[1]
  CC50: 99.7 µg/mL (≈ 183 µM)
Leishmania donovani
  pIC50: 5.07

## COC(=O)N1[C@@H]2C=C[C@@](OC)(C(=O)c3c2cc(OC)c(OC)c3OCc2ccc(OC)cc2)N1C(=O)OC
Trypanosoma cruzi
  pIC50: < 4.25
[1]
  CC50: > 300 µg/mL
Leishmania donovani
  pIC50: < 4.25

## COc1cc2c(c(OCc3ccccc3F)c1OC)C(=O)[C@]1(OC)C=C[C@H]2N(C(=O)OC(C)C)N1C(=O)OC(C)C
Trypanosoma cruzi
  pIC50: 5.02
[1]
  CC50: 109 µg/mL (≈ 190 µM)
Leishmania donovani
  pIC50: < 4.28

## COc1cc2c(c(OCc3ccc(Cl)cc3)c1OC)C(=O)[C@]1(OC)C=C[C@H]2N(C(=O)OC(C)C)N1C(=O)OC(C)C
Trypanosoma cruzi
  pIC50: > 5.72
[1]
  CC50: 42 µg/mL (≈ 71.3 µM)
Leishmania donovani
  pIC50: 4.32
[3]
  selectivity ratio: 37.6

## COc1ccc(COc2c(OC)c(OC)cc3c2C(=O)[C@]2(OC)C=C[C@H]3N(C(=O)OC(C)C)N2C(=O)OC(C)C)cc1
Trypanosoma cruzi
  pIC50: 5.01
[1]
  CC50: 47.9 µg/mL (≈ 81.9 µM)
Leishmania donovani
  pIC50: < 4.29

## COC(=O)N1[C@@H]2C=C[C@@](OC)(C(=O)c3c2cc(OC)c(OC)c3O)N1C(=O)OC
Trypanosoma cruzi
  pIC50: < 4.13
[1]
  CC50: > 300 µg/mL
Leishmania donovani
  pIC50: < 4.13

## CCCOc1c(OC)c(OC)cc2c1C(=O)[C@]1(OC)C=C[C@H]2N(C(=O)OC)N1C(=O)OC
Trypanosoma cruzi
  pIC50: < 4.18
[1]
  CC50: > 300 µg/mL
Leishmania donovani
  pIC50: < 4.18

## COC(=O)N1[C@@H]2C=C[C@@](OC)(C(=O)c3c2cc(OC)c(OC)c3OCc2ccc(Cl)cc2)N1C(=O)OC
Trypanosoma cruzi
  pIC50: 4.29
[1]
  CC50: 55.9 µg/mL (≈ 105 µM)
Leishmania donovani
  pIC50: < 4.25

## CCCOc1c(OC)c(OC)cc2c1C(=O)[C@]1(OC)C=C[C@H]2N(C(=O)OC(C)C)N1C(=O)OC(C)C
Trypanosoma cruzi
  pIC50: 4.37
[1]
  CC50: 299 µg/mL (≈ 590 µM)
Leishmania donovani
  pIC50: < 4.23

## CCCCOc1c(OC)c(OC)cc2c1C(=O)[C@]1(OC)C=C[C@H]2N(C(=O)OC(C)C)N1C(=O)OC(C)C
Trypanosoma cruzi
  pIC50: 4.63
[1]
  CC50: 22.1 µg/mL (≈ 42.5 µM)
Leishmania donovani
  pIC50: < 4.24

## CCCCOc1c(OC)c(OC)cc2c1C(=O)[C@]1(OC)C=C[C@H]2N(C(=O)OC)N1C(=O)OC
Trypanosoma cruzi
  pIC50: 4.24
[1]
  CC50: > 300 µg/mL
Leishmania donovani
  pIC50: < 4.19

## COc1cc2c(c(O)c1OC)C(=O)[C@]1(OC)C=C[C@H]2N(C(=O)OC(C)C)N1C(=O)OC(C)C
Trypanosoma cruzi
  pIC50: < 4.19
[1]
  CC50: > 300 µg/mL
Leishmania donovani
  pIC50: < 4.19

## CCCCOc1c(OC)c(OC)cc2c1C(=O)[C@]1(OC)C=C[C@H]2N(C(=O)OCC)N1C(=O)OCC
Trypanosoma cruzi
  pIC50: < 4.22
[1]
  CC50: 76 µg/mL (≈ 154 µM)
Leishmania donovani
  pIC50: < 4.22

## O=C(Cn1ccnc1[N+](=O)[O-])NCc1ccccc1 [BENZNIDAZOLE]
Trypanosoma cruzi
  pIC50: 5.06

Source: ChEMBL document CHEMBL1149540, “Synthesis and in vitro protozoocidal activity of diazabicyclic benzotropolone derivatives” (Bioorg Med Chem Lett, 2007)
